Test results as given in US6369252B1, “Structured lipids” (The University of Georgia Research Foundation, Inc., priority 1998, dated 2002).

Tests used:
[1] = Oxidative stability index (OSI); type: physicochemical; conditions: 80° C., air flow […]
Procedure: Oxidative stability index (OSI). An Oxidative Stability Instrument (Omnion, Rockland, Mass.) was used to measure induction times. Five grams of tricaprylin, EPAX 5500 (fish oil TAG, Pronova Biocare, Sandefjord, Norway), and SL which was deacidified by alkali-liquid extraction were placed into the disposable borosilicate glass reaction tubes with disposable pipets. The heating temperature was 80° C. The polycarbonate conductivity tubes were filled with deionized water and he probes were connected. After temperature reached 80° C., air was bubbled in. […] OSI time was determined with an on-line computer, which monitored the conductivity vs time and plotted the induction period automatically. OSI values at 80° C. were converted to AOM and OSI values at 97.8° C.

[2] = TBA (2-thiobarbituric acid) lipid oxidation test; type: physicochemical; conditions: 1, 2, and 4% α-tocopherol in SL, after 48 hours
Procedure: TBA. A modified extraction 2-thiobarbituric acid method was used, Salih, et al., Poult. Sci., 66:1483-1488 (1987). The TBA test expresses lipid oxidation in milligram malonaldehyde (secondary oxidation product of polyunsaturated fatty acids) per kilogram of sample. 1±0.002 grams of SL was mixed with 0.01, 0.02, and 0.04 grams of α-tocopherol in a 25 mL flask and left at room temperature without protection from light for 12, 24, and 48 hours. Each sample was then purged with nitrogen and stored at −90° C. until assay. One milliliter of 6% BHT in ethanol and 25 mL 5% TCA solution in distilled water were added to each sample and blended. A 2 mL aliquot of the blended sample was mixed with 0.02 M TBA solution (3 mL) in screw capped test tubes. After vortexing (30 sec.), the tubes were incubated in boiling water for 30 min., cooled and the absorbance against blank was measured at 535 nm. A 5 μL aliquot of TEP (0.92 g/mL) was diluted to 5 mL with 5% TCA solution and diluted to prepare various concentrations ranging from […]. Each dilution was incubated and the absorbance against blank was measured after cooling. Standard curve was plotted using absorbance values vs amount of TEP which was converted from concentration.

| OSI value [1] | Structure (SMILES) | antioxidant effect on SL (TBA) [2] |
| --- | --- | --- |
| quite stable to oxidation | CCCCCCCC(=O)OCC(COC(=O)CCCCCCC)OC(=O)CCCCCCC [tricaprylin, 1,2,3-trioctanoyl glycerol] |  |
|  | Cc1c(C)c2c(c(C)c1O)CC[C@@](C)(CCC[C@H](C)CCC[C@H](C)CCCC(C)C)O2 [α-tocopherol] | reduced the oxidation of SL significantly |
